melting point: 110 °C
SMILES: COCC(C)Nc1cc(-c2ccnc(Nc3cccc(Cl)c3)c2)ccn1 (stereo not shown) [Compound A1.10, N*2′*-(3-Chloro-phenyl)-N*2*-(2-methoxy-1-methyl-ethyl)-[4,4′]bipyridinyl-2,2′-diamine]
